# Columns and labels:
# Assay type in all cases: biochemical
# [1] = test system: Amy2=Amplify; assay: amylase storage stability in liquid formulation (pNP release from Ethyliden-blocked-pNPG7); set-up: key: % of activity in reference formulation at time 0; conditions: storage at 37° C.
# How it was run: (§1)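 Amylase (dosed as active protein) was stored at 37 °C in liquid base formulations with or without test or comparative compounds. Activity at set time points was measured as pNP release (A405) from blocked-pNPG7 with excess α-glucosidase, expressed relative to the reference formulation at time 0.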
# [2] = test system: Amy1=Stainzyme; assay: as above; set-up: key: % of activity in reference formulation at time 0; conditions: storage at 37° C.
# How it was run: as §1
# [3] = test system: Amylase; assay: amylase storage stability in liquid laundry formulation (pNP release from Ethyliden-blocked-pNPG7); set-up: key: % of activity in reference formulation at time 0; conditions: laundry base formulation VII. (2.0 EDTA), 2.5 wt % component (a), storage at 37° C.
# How it was run: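 Amylase stored in liquid laundry base formulations at 37° C, activity sampled over time. Activity measured as pNP release (A405) from ethylidene-blocked pNPG7 with excess α-glucosidase; values expressed relative to the reference formulation at time 0.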
# [4] = test system: Amy3=Stainzyme Plus L (12L); assay: amylase storage stability in liquid formulation (pNP release from Ethyliden-blocked-pNPG7); conditions: base formulation II., 1.5 wt % component (a), storage at 37° C.
# How it was run: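 Liquid formulations with amylase (as active protein) stored at 37 °C and sampled at intervals. Activity measured as pNP release (405 nm) from ethylidene-blocked pNPG7 with excess α-glucosidase, Termamyl standard; expressed relative to reference formulation at time 0.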
substance,measurement,setting,value
Diethylcitrate [A.7],"amylase activity, referring to reference formulation at time 0","[1]; base formulation III., 1.5 wt % component (a), 3 d",96
same,"amylase activity, referring to reference formulation at time 0","[1]; base formulation III., 1.5 wt % component (a), 7 d",91
same,"amylase activity, referring to reference formulation at time 0","[1]; base formulation III., 1.5 wt % component (a), 14 d",85
same,"amylase activity, referring to reference formulation at time 0","[1]; base formulation III., 1.5 wt % component (a), 21 d",78
same,"amylase activity, referring to reference formulation at time 0","[1]; base formulation III., 1.5 wt % component (a), 28 d",70
same,"amylase activity, referring to reference formulation at time 0","[1]; base formulation III., 1.5 wt % component (a), 42 d",60
same,"amylase activity, referring to reference formulation at time 0","[1]; base formulation III., 1.5 wt % component (a), T0",98
same,"amylase activity, referring to reference formulation at time 0","[1]; base formulation V., 2.0 wt % component (a), 3 d",96
same,"amylase activity, referring to reference formulation at time 0","[1]; base formulation V., 2.0 wt % component (a), 7 d",87
same,"amylase activity, referring to reference formulation at time 0","[1]; base formulation V., 2.0 wt % component (a), 14 d",74
same,"amylase activity, referring to reference formulation at time 0","[1]; base formulation V., 2.0 wt % component (a), 21 d",63
same,"amylase activity, referring to reference formulation at time 0","[1]; base formulation V., 2.0 wt % component (a), 28 d",55
same,"amylase activity, referring to reference formulation at time 0","[1]; base formulation V., 2.0 wt % component (a), 42 d",47
same,"amylase activity, referring to reference formulation at time 0","[1]; base formulation V., 2.0 wt % component (a), T0",98
same,"amylase activity, referring to reference formulation at time 0","[2]; base formulation I., 1.5 wt % component (a), 3 d",96
same,"amylase activity, referring to reference formulation at time 0","[2]; base formulation I., 1.5 wt % component (a), 7 d",86
same,"amylase activity, referring to reference formulation at time 0","[2]; base formulation I., 1.5 wt % component (a), 14 d",81
same,"amylase activity, referring to reference formulation at time 0","[2]; base formulation I., 1.5 wt % component (a), 21 d",74
same,"amylase activity, referring to reference formulation at time 0","[2]; base formulation I., 1.5 wt % component (a), 28 d",63
same,"amylase activity, referring to reference formulation at time 0","[2]; base formulation I., 1.5 wt % component (a), 42 d",50
same,"amylase activity, referring to reference formulation at time 0","[2]; base formulation I., 1.5 wt % component (a), T0",99
same,"amylase activity, referring to reference formulation at time 0","[2]; base formulation IV., 2.0 wt % component (a), 3 d",94
same,"amylase activity, referring to reference formulation at time 0","[2]; base formulation IV., 2.0 wt % component (a), 7 d",88
same,"amylase activity, referring to reference formulation at time 0","[2]; base formulation IV., 2.0 wt % component (a), 14 d",82
same,"amylase activity, referring to reference formulation at time 0","[2]; base formulation IV., 2.0 wt % component (a), 21 d",74
same,"amylase activity, referring to reference formulation at time 0","[2]; base formulation IV., 2.0 wt % component (a), 28 d",63
same,"amylase activity, referring to reference formulation at time 0","[2]; base formulation IV., 2.0 wt % component (a), 42 d",52
same,"amylase activity, referring to reference formulation at time 0","[2]; base formulation IV., 2.0 wt % component (a), T0",99
same,"amylase activity, referring to reference formulation at time 0",[3]; 3 d,90
same,"amylase activity, referring to reference formulation at time 0",[3]; 7 d,82
same,"amylase activity, referring to reference formulation at time 0",[3]; 14 d,69
same,"amylase activity, referring to reference formulation at time 0",[3]; 21 d,62
same,"amylase activity, referring to reference formulation at time 0",[3]; 28 d,56
same,"amylase activity, referring to reference formulation at time 0",[3]; T0,99
same,"amylase activity, referring to reference formulation at time 0",[4]; 3 d,94
same,"amylase activity, referring to reference formulation at time 0",[4]; 7 d,86
same,"amylase activity, referring to reference formulation at time 0",[4]; 14 d,82
same,"amylase activity, referring to reference formulation at time 0",[4]; 21 d,72
same,"amylase activity, referring to reference formulation at time 0",[4]; 28 d,64
same,"amylase activity, referring to reference formulation at time 0",[4]; 42 d,53
same,"amylase activity, referring to reference formulation at time 0",[4]; T0,99
